Laboratory results taken from article doi:10.1101/2025.04.16.649181, “Design of peptide-based PAC1 antagonists combining molecular dynamics simulations and a biologically relevant cell-based assay” (bioRxiv, 2025).
No end group written: not given here.

How the values were obtained:
[1] = molecular target: T1, PAC1 (endogenous, mainly PAC1null, SH-SY5Y) (Homo sapiens, UniProt P41586); test: Direct cAMP ELISA, antagonism of P38 in SY5Y_CBS cells; type: cell-based
T1 construct: Neuroblastoma SH-SY5Y cells endogenously xpressing hPAC1 and engineered to express CBS; endogenous in cells
T1 sequence (P41586 21-468): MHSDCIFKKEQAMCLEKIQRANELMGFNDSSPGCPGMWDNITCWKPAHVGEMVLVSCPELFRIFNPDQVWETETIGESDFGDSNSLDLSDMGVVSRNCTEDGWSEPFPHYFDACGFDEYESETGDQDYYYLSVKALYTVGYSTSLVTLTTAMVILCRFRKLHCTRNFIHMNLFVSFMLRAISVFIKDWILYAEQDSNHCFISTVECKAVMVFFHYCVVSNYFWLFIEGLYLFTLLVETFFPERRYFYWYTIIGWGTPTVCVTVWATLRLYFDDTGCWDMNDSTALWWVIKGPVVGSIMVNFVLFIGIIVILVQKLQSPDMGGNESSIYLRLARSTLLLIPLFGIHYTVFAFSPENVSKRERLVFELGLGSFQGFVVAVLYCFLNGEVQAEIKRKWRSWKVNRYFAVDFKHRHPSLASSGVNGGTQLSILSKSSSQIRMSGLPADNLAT
Protocol: Direct cAMP determinations were made using the DetectX® Direct Cyclic AMP Enzyme Immunoassay Kit (Arbor Assays, Ann Arbor, MI). SY5Y_CBS cells (200,000 cells per well) or HEK293_CBS cells (10,000 cells per well) were seeded into 96-well plates one day prior to the assay. These cell densities were optimized to ensure agonist responses fell within the linear range of the cAMP standard curve (0.16-10 pmol/mL cAMP). On the day of the assay, the medium was removed and replaced with fresh medium containing 500 μM IBMX. After a 20-minute incubation at 37 °C, antagonists were added and incubated for 10 minutes at 37 °C, followed by the addition of agonists for 30 minutes at 37 °C. Following the final incubation, the medium was aspirated, and cells were lysed with 200 μL of lysis buffer (provided in the kit) for 10 minutes at room temperature. Samples were then snap-frozen and stored at −80 °C overnight and thawed the next day to ensure complete cell lysis. The assay was completed by sequentially adding the cAMP peroxidase conjugate, anti-cAMP sheep antibody, substrate, and stop solution, according to the manufacturer’s instructions. Optical density was measured at 450 nm using a microplate spectrophotometer (Molecular Devices, San Jose, CA). Standard curves and data analysis were performed using GraphPad Prism with a sigmoidal four-parameter nonlinear regression model. Experiments conducted on different days with independently plated and assayed cells were considered biological replicates. Each experiment included three technical replicates.
(§1) GraphPad Prism ver. 9.0 or 10.0 (GraphPad Software Inc, Boston, MA) was used for data analysis. Concentration response curves were created using a four parameter logistic regression model. EC80 and IC50 parameters were obtained using non-linear regression curve fitting tools. EC80 was calculated as the effective concentration of the agonist required to produce 80% of the maximal response. IC50 was calculated as the concentration of the antagonist that produced 50% of the response induced by an agonist (either PACAP or forskolin) in the absence of the antagonist. Seven or eight different concentrations and three technical replicates per concentration were used for curve fitting. All data are presented as mean ± standard error of the mean (SEM).

[2] = molecular target: T1, PAC1 (endogenous, mainly PAC1null, SH-SY5Y); test: CBS assay, antagonism of P27-induced cAMP in SY5Y_CBS cells; type: cell-based
Description: (§2) A single clone of the SH-SY5Y cell line stably expressing a cAMP biosensor (SY5Y_CBS) was generated as previously described for HEK293_CBS and NS-1_CBS cells, using the retroviral vector pLHCX containing the cAMP biosensor and a hygromycin resistance gene. A HEK293_CBS_hPAC1 cell clone was generated by transducing HEK293_CBS cells with the lentiviral vector pLX304 (GeneCopoeia, Rockville, MD) encoding the human PAC1hop (PAC1; GenBank accession no. BC143679) and a blasticidin resistance gene . Following transduction, cells were selected with the appropriate antibiotics (hygromycin or blasticidin) for 2 weeks. Single-cell clones were subsequently isolated by limiting dilution and assessed for PACAP-induced cAMP production using concentration-response assays.
(§3) The cyclic AMP biosensor (CBS) assay was performed using Gibco CO2-independent medium (ThermoFisher, catalog #18045-088). HEK293_CBS_hPAC1 or SY5Y_CBS cells were seeded in 96-well black/clear-bottom plates (MidSci, Fenton, MO) at a density of 6,000 cells per well and incubated overnight. The following day, the medium in each well was aspirated and replaced with fresh medium containing 1.5 mg/mL D-luciferin potassium salt substrate (Gold Biotechnology, St. Louis, MO) and 500 μM isobutyl-1-methylxanthine (IBMX), followed by incubation at 37 °C for 1 hour. Cells were then pre-treated with antagonists for 10 minutes before the addition of agonists (PACAP or forskolin). Plates were incubated at 37 °C for 1 hour, then brought to room temperature and equilibrated for 30 minutes. Luminescence was measured using a GloMax plate reader (Promega, Madison, WI).
For the high-throughput CBS screening assays, cells were plated at 2,000 (HEK293_CBS_hPAC1) or 3,000 (SY5Y_CBS) cells per well in […] of Gibco CO2-independent medium, in white 1,536-well tissue culture treated plates. After overnight incubation at 37 °C and 5% CO2, […] of luciferin/IBMX solution was added to the wells (final concentrations of 500 μM each) and plates were incubated at 37 °C for 1 hour. SMOLs (22.5 nL) were transferred to the assay plate, using a pintool device (HEK293 screen) or an ECHO acoustic liquid handler (Beckman Coulter, Brea, CA, SY5Y screen), to final concentrations (4 concentrations per compound) between 0.5 and 30 μM and cells were incubated at 37 °C for 1 hour (HEK293 screen) or 10 minutes (SY5Y screen). […] For forskolin counterscreening in SY5Y cells, forskolin instead of peptide was dispensed to the plate at a final concentration of 5 μM.
as §1

[3] = molecular target: T1, PAC1 (endogenous, mainly PAC1null, SH-SY5Y); test: CBS assay, antagonism of P38-induced cAMP in SY5Y_CBS cells; type: cell-based
Description: as §2, §3, §1

human PAC1hop (hPAC1) = test: cAMP biosensor (CBS) assay, agonist responses in HEK293_CBS_hPAC1; type: cell-based; conditions: HEK293_CBS_hPAC1, IBMX pretreated, luminescence
Description: as §2, §3
GraphPad Prism ver. 9.0 or 10.0 (GraphPad Software Inc, Boston, MA) was used for data analysis. Concentration response curves were created using a four parameter logistic regression model. EC80 and IC50 parameters were obtained using non-linear regression curve fitting tools. EC80 was calculated as the effective concentration of the agonist required to produce 80% of the maximal response. […]

[4] = molecular target: PAC1 endogenously expressed in SH-SY5Y cells (human (endogenous in SH-SY5Y)) (UniProt P41586)
[5] = molecular target: PAC1 endogenously expressed in SH-SY5Y cells (human (endogenous in SH-SY5Y)) (UniProt P41586); remark: listed apart in the source
PAC1 [6] = conditions: ref 15 (maxadilan); cited from earlier work
Description: Similarities include initial binding events between the C-terminal domain of the peptide with the extracellular domain (ECD) followed by insertion of the N-terminus of the peptide into the core of the receptor to enable activation, but with differences in binding poses in the C-terminus explaining in part the ligand selectivity of each receptor [13]. Empirica ...

PAC1 [7] = test: CBS assay in NS-1 cells, endogenous PAC1; type: cell-based, rat; conditions: NS-1 cells expressing CBS, n = 3
Protocol: Cell culture reagents were purchased from ThermoFisher Scientific (Waltham, MA) unless otherwise noted. Neuroscreen-1 (NS-1) cells (Cellomics, Halethorpe, MD) were grown on flasks or plates coated with Collagen I (rat tail) as described previously. NS-1 cells were cultured in RPMI-1640 media supplemented with 10% horse serum and 5% heat-inactivated Fetal Bovine Serum (Hyclone, Logan, UT). HEK293 and SH-SY5Y cells were purchased from ATCC (Gaithersburg, MD) and cultured with DMEM medium with 10% FBS. All cell culture medium were supplemented with 2 mM glutamine, 100 U/ml penicillin, and 100 μg/ml streptomycin.
A single clone of the SH-SY5Y cell line stably expressing a cAMP biosensor (SY5Y_CBS) was generated as previously described for HEK293_CBS and NS-1_CBS cells, using the retroviral vector pLHCX containing the cAMP biosensor and a hygromycin resistance gene. […] Single-cell clones were subsequently isolated by limiting dilution and assessed for PACAP-induced cAMP production using concentration-response assays.
The cyclic AMP biosensor (CBS) assay was performed using Gibco CO2-independent medium (ThermoFisher, catalog #18045-088). […] Luminescence was measured using a GloMax plate reader (Promega, Madison, WI).
GraphPad Prism ver. […] EC80 was calculated as the effective concentration of the agonist required to produce 80% of the maximal response. […]

HEK293_CBS cells = test: cAMP biosensor (CBS) assay, agonist responses in parental HEK293_CBS; type: cell-based
[8] = molecular target: T1, PAC1 (endogenous, mainly PAC1null, SH-SY5Y); test: CBS assay, agonist potency in SY5Y_CBS cells; type: cell-based
Description: A single clone of the SH-SY5Y cell line stably expressing a cAMP biosensor (SY5Y_CBS) was generated as previously described for HEK293_CBS and NS-1_CBS cells [30], using the retroviral vector pLHCX containing the cAMP biosensor and a hygromycin resistance gene. […] Following transduction, cells were selected with the appropriate antibiotics (hygromycin or blasticidin) for 2 weeks. Single-cell clones were subsequently isolated by limiting dilution and assessed for PACAP-induced cAMP production using concentration-response assays.

[9] = 1 nM P38, average of two independent experiments, read-out: IC50 Average in ELISA assay
[10] = 1 nM P38, range of two independent experiments, read-out: IC50 Range in ELISA assay
[11] = 0.2 nM P38 (EC80), SY5Y_CBS, mean ± SEM, three independent experiments, Figure 11B, read-out: IC50 of P6-38 C-terminal mutants in CBS assay

CSCC[C@H](NC(=O)[C@H](CCC(N)=O)NC(=O)[C@H](CCCCN)NC(=O)[C@H](CCCNC(=N)N)NC(=O)[C@H](Cc1ccc(O)cc1)NC(=O)[C@H](CCCNC(=N)N)NC(=O)[C@H](CO)NC(=O)[C@H](Cc1ccc(O)cc1)NC(=O)[C@H](CO)NC(=O)[C@H](CC(=O)O)NC(=O)[C@@H](NC(=O)[C@@H](N)Cc1ccccc1)[C@@H](C)O)C(=O)N[C@@H](C)C(=O)N[C@H](C(=O)N[C@@H](CCCCN)C(=O)N[C@@H](CCCCN)C(=O)N[C@@H](Cc1ccc(O)cc1)C(=O)N[C@@H](CC(C)C)C(=O)N[C@@H](C)C(=O)N[C@@H](C)C(=O)N[C@H](C(=O)N[C@@H](CC(C)C)C(=O)NCC(=O)N[C@@H](CCCCN)C(=O)N[C@@H](CCCNC(=N)N)C(=O)N[C@@H](Cc1ccc(O)cc1)C(=O)N[C@@H](CCCCN)C(=O)N[C@@H](CCC(N)=O)C(=O)N[C@@H](CCCNC(=N)N)C(=O)N[C@H](C(=O)N[C@@H](CCCCN)C(=O)N[C@@H](CC(N)=O)C(=O)N[C@@H](CCCCN)C(N)=O)C(C)C)C(C)C)C(C)C [P6-38, reference compound]
IC50 [1, 9]: 0.114 µM
IC50 [1, 10]: 0.086 to 0.142 µM
IC50 ([2]; IC50 against P27 (estimated from Figure 5B), 0.2 nM P27 (EC80), SY5Y_CBS): ~0.02 µM
IC50 [3, 11]: 0.117 ± 0.019 µM
IC50 ([3]; IC50 against P38 (Figure 9C), 0.2 nM P38, CBS assay, mean ± SEM, three independent experiments): 0.052 ± 0.013 µM
IC50 ([3]; IC50 against P38 (estimated from Figure 5B), 0.2 nM P38 (EC80), SY5Y_CBS, CBS assay): ~0.1 µM

FTDSYSRYRKQMAVKKYLAAVL-NH2 [P6-27]
IC50 [1, 9]: 3.31 µM
IC50 [1, 10]: 0.37 to 6.25 µM
IC50 ([2]; IC50 against P27 (Figure 8), 0.2 nM P27, SY5Y_CBS, 3 independent experiments): ~0.1 µM
IC50 ([2]; IC50 against P27, 0.2 nM P27 (EC80), mean ± SEM, n = 3, Figure 7C): 0.2 ± 0.055 µM
IC50 ([3]; 0.2 nM P38 (EC80), SY5Y_CBS, three independent experiments, Figure 11B, read-out: IC50 of P6-38 C-terminal mutants in CBS assay): > 1 µM

FTDSYSRYRKQMAVKKYLAAVLGK-NH2 [P6-29]
IC50 [1, 9]: 1.25 µM
IC50 [1, 10]: 0.35 to 2.15 µM
IC50 [3, 11]: > 0.5 µM

FTDSYSRYRKQMAVKKYLAAVLGKR-NH2 [P6-30]
IC50 [1, 9]: 0.175 µM
IC50 [1, 10]: 0.052 to 0.297 µM
IC50 [3, 11]: 0.084 ± 0.026 µM

P27: PACAP 1-27, endogenous PAC1 agonist (HSDGIFTDSYSRYRKQMAVKKYLAAVL; ends and bridges not checked)
agonist response (cAMP) (human PAC1hop (hPAC1)): highly responsive to P38 and P27 with similar potency and efficacy

PACAP(6-27) (peptide)
IC50 of inhibition of P27-stimulated (0.2 nM) cAMP elevation (CBS assay) in SY5Y CBS cells; pair that is blocked: m2 + m18 [4]: 0.1 µM
percent to which P38-induced (0.2 nM) cAMP elevation is blocked (CBS assay) in SY5Y CBS cells, antagonist up to 10 μM; pair that is blocked: m1 + m18 [4]: 50%

PACAP(6-38) (peptide)
IC50 of inhibition of P27-induced cAMP elevation (CBS assay) in SY5Y CBS cells; pair that is blocked: m2 + m18 [5]: 0.02 µM
IC50 of inhibition of P38-induced cAMP elevation (CBS assay) in SY5Y CBS cells; pair that is blocked: m1 + m18 [5]: 0.1 µM

maxadilan
activity at PAC1 (PAC1 [6]): agonist

pituitary adenylate cyclase-activating polypeptide (PACAP) 1-27 (from UniProt P18509 132-158)
EC80 of cAMP elevation (CBS assay) in SY5Y CBS cells [5]: 0.0002 µM

pituitary adenylate cyclase-activating polypeptide (PACAP) 1-38 (HSDGIFTDSYSRYRKQMAVKKYLAAVLGKRYKQRVKNK-NH2) [P38, endogenous PAC1 agonist]
activation of endogenous PAC1 (PAC1 [7]): can be activated by P38
agonist response (cAMP) (human PAC1hop (hPAC1)): highly responsive to P38 and P27 with similar potency and efficacy

vasoactive intestinal peptide [VIP]
relative potency of PACAP and VIP (HEK293_CBS cells): the potency of PACAP was similar to VIP
response relative to HEK293_CBS_hPAC1 level (HEK293_CBS cells; IBMX pretreated, luminescence): less than 5%
agonist response / relative agonist potency [8]: VIP is a less potent agonist
potency relative to P27 and P38 (times less potent) [8]: about 100 times
EC80 (approximate) ([8]; Figure 5A): ~ 20 nM
EC80 ([8]; mean ± SEM, n = 3): 0.02 ± 0.0062 µM
Hill Slope ([8]; mean ± SEM, n = 3): 1.78 ± 0.35
agonist response (cAMP) (human PAC1hop (hPAC1)): highly specific for activation by PACAP, compared to the related peptide VIP

HSDAVFTDNYTRLRKQMAVKKYLNSILN [vasoactive intestinal peptide]
EC80 of cAMP elevation (CBS assay) in SY5Y CBS cells [5]: 0.02 µM
